Patent US12629336B2, “Compositions and methods of use thereof for treatment of mastitis” (CureMast, Inc., priority 2020, dated 2026)
Where “and” joins values, the source holds several entries; their conditions need not be identical. Identical values can stand only once. Like-named read-outs stand apart in the source and are kept apart here.

Legend:
bacteria = settings: in vitro; value in brackets; cited from earlier work
epithelial cells = settings: in vitro, cited from earlier work
[1] = paper chromatography: migration/release of NAC from monoolein emulsions; assay type: physicochemical; settings: deionized water as solvent, tetrazolium/ammonia detection
Excerpt: Paper chromatography was utilized to evaluate the release of soluble NAC from the formulations of Examples 1 and 2 using a colorimetric reagent to develop the chromatograms as follows:
Three strips of chromatography paper were marked with pencil to indicate the “origin” and spotted with a small dot of each of the two samples. The third strip was spotted with a drop of aqueous NAC only. Each strip was suspended in a separate jar with deionized water just covering the bottom of the jar. The bottom edge of each paper strip was positioned to be immersed in water, which gradually migrated up the strip. After upward water migration wet approximately 6 to 8 cm of the paper, the “solvent front” was marked with pencil and the strips were allowed to dry completely.
Tetrazolium blue chloride (Sigma no. T4375, lot no. SHBM0991) was dissolved in denatured ethyl alcohol to obtain a 1% solution and transferred to a small spray bottle. The dry chromatography strips were placed in a chemical fume hood, sprayed with the tetrazolium solution, and allowed to dry again. An ammonia chamber was created by coving the bottom of a large glass canister with concentrated ammonium hydroxide and the chromatography paper strips were suspended just above the liquid with the canister covered until a purple color developed, indicating the presence of NAC.

Molecule	minimum inhibitory concentration (MIC) required to kill bacteria (bacteria) [%]	cytotoxic limit (CTL) above which epithelial cells are killed (epithelial cells)	cytotoxic limit (CTL) above which epithelial cells are killed (epithelial cells; value in brackets) [%]	Rf value of NAC [1]	migration of NAC from the origin [1]
polyhexamethylene biguanide hydrochloride [PHMB]	0.01	greater than 15 mg per liter	> 0.15		
CC(=O)N[C@@H](CS)C(=O)O [aqueous NAC, N-acetyl-L-cysteine]				0.91 and 0.67	migrated from the origin
